Reference: the METLIN SMRT retention time set (Domingo-Almenara et al. 2019)

Assay: gradient 5% acetonitrile 3 min, to 50% in 2 min, to 85% in 15 min, held 3 min, 100 µL/min
Conditions: column: Zorbax Extend-C18 2.1 x 50 mm; eluents: water / acetonitrile, 0.1% formic acid
Summary of the method: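 Retention times come from adduct peaks that were picked computationally and then checked by hand. The standards, pure and pooled in mixtures of ~100 molecules, were run on a Zorbax Extend-C18 column (2.1 × 50 mm, 1.8 μm) at 100 μL/min with water and acetonitrile, each with 0.1% formic acid. Detection was by quadrupole time-of-flight mass spectrometry in positive and negative ionization mode, with a dead volume of 40 μL and a dwell volume of 900 μL.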

RP-LC retention time [s] | Structure (SMILES)
1130 | COc1ccc(OC)c(NS(=O)(=O)c2cc(-c3cc(C(F)(F)F)on3)sc2C)c1
865 | Cc1nn(-c2ccccc2)c(C)c1CCc1nn2c(-c3ccccc3F)nnc2s1
665 | COc1ccc(OC)c(CNC(=O)c2cn3ccccc3n2)c1
777 | CC1=C(c2ccccc2)S(=O)(=O)N=C1N1CCCN(C(=O)c2cccc(C#N)c2)CC1
869 | CN(Cc1ccco1)C(=O)c1ccc(NC(=O)C2CC2)cc1N1CCCCCC1
570 | O=C(Nc1ccc(N2CCN(Cc3ccc(F)cc3)C2=O)nc1)c1cccs1
945 | CC(C)NC(=O)N1CCCC(c2cccc(C(=O)NCC3CCCCC3)c2)C1 (stereo not given)
548 | Fc1cc(F)c2nc(NCCCn3ccnc3)sc2c1
831 | COc1ccccc1C(=O)N1CCCC1c1cc(C(C)C)no1 (stereo not given)
840 | O=C(NCCn1c(=O)n(Cc2ccc(F)cc2)c2cccnc21)c1nccc2ccccc12
1110 | CCOc1ccc(-c2nc(CN3C(=O)C(O)(c4ccccc4)c4ccccc43)c(C)o2)cc1 (stereo not given)
1100 | CC(C)CC(=O)Nc1ccc(-c2nc(-c3ccccc3)co2)cc1
768 | COc1ccc(OCc2noc(CNC(=O)C(C)n3nnc4ccccc4c3=O)n2)cc1 (stereo not given)
761 | CC(C)Oc1ccc(CN2CCn3c(nn(CC4CC4)c3=O)C2)cc1
968 | CCOc1cc(CNC(=O)C2CCCN(C(=O)c3cc(C)cc(C)c3)C2)cc(OCC)c1OCC (stereo not given)
568 | CCNC(=O)c1cc(C)nc2ccc(C)cc12
1040 | CSc1cccc(NC(=O)Cn2cnc3c(sc4nc(-c5ccccc5)ccc43)c2=O)c1
705 | CC(C)=C(c1ccc(Cl)cc1)c1c(N)ncnc1N
595 | O=C(C1CCCN(Cc2nc(-c3cccnc3)no2)C1)N1CCc2ccccc21 (stereo not given)
1020 | Cc1csc(-c2csc(S(=O)(=O)Nc3ccc(F)c(Cl)c3)c2)n1
673 | O=C(NC1CC1)c1ccc2c(c1)CCN2C(=O)C1CC1

RP-LC retention time [s] | Structure (SMILES)
831 | COc1ccc(C2Cn3cnc(C(=O)N4CCC(C(=O)NCCC5=CCCCC5)CC4)c3CO2)cc1 (stereo not given)
826 | CN1C(=O)c2ccccc2Oc2ccc(C(=O)NCc3ccc4c(c3)OCO4)cc21
820 | O=C(Nc1cccn2ncnc12)c1ccc(Cl)s1
810 | COC(=O)CNC(=O)NC(Cc1ccccc1)Cc1ccc2c(c1)OCO2 (stereo not given)
852 | CSCCC(NS(=O)(=O)c1ccc(Oc2ccccc2C)cc1)C(=O)O (stereo not given)
1040 | Cc1sc2ccn(CC(C)C)c(=O)c2c1C(=O)NCc1cc(F)ccc1F
765 | CNC(=O)N1CC(C)Oc2ccc(C)cc21 (stereo not given)
785 | Cc1ccc2c(Nc3ccc(Cl)cc3)c(-c3nc(C)no3)cnc2n1
828 | CCOC(=O)c1[nH]c(C)c(CCC(=O)N2CCC(C(=O)NCc3ccc(Cl)cc3)CC2)c1C
781 | CN(C)C(=O)c1ccc2c(c1)N(CC(=O)NCCc1c[nH]c3ccccc13)C(=O)C1CCCCN21 (stereo not given)
644 | CCN1CCn2cc(C(=O)NCc3ccc(C(C)C)cc3)nc2C1
819 | O=C(c1cn(-c2ccc(-c3nc(C4CC4)no3)cn2)cn1)N1CCSCC1
906 | CCCNC(=O)C1CCN(c2nc3ccc(-c4ccccc4)nc3s2)CC1
923 | Cc1cc(Cl)ccc1NS(=O)(=O)c1cc2c(s1)CCN(C(=O)C1CC1)C2
658 | O=C(NCc1ccc(F)cc1)N1CCC(OC2CCN(Cc3ccccc3)CC2)CC1
587 | CC(C)CN1CCCn2ccnc2C1C1CCN(C(=O)C(C)C)CC1 (stereo not given)
593 | COc1cccc(CNc2ccc3[nH]c(=O)[nH]c3c2)c1OC
868 | Cc1nc(-c2csc(S(=O)(=O)N3CCC(C(=O)NCCC(C)C)CC3)c2)no1
672 | CCC(C)NC(=O)C1CCN(S(=O)(=O)c2c(C)[nH]c(C)c2C(=O)N2CCCCC2)CC1 (stereo not given)
936 | CC(C)CNC(=O)c1ccc2c(c1)CCCN2S(=O)(=O)c1ccccc1
537 | O=C(NCCCN1CCC(N2CCCCC2)CC1)c1ccc2c(c1)NC(=O)C1CCCCN21 (stereo not given)

RP-LC retention time [s] | Structure (SMILES)
633 | COc1ccc(S(=O)(=O)N(C)CCCC(=O)O)cc1N(C)S(C)(=O)=O
703 | COc1ccc(NC(=O)c2cn3c(n2)COCC3)cc1Cl
864 | CCCCCCNC(=O)C1CC(=O)N(CCc2c[nH]c3ccc(C)cc23)C1 (stereo not given)
938 | CCOc1ccc(-n2ccn3cc(-c4ccc(C)c(C)c4)nc3c2=O)cc1
616 | O=C1c2ccccc2C(=O)c2c1ccc(C(=O)N1CCN(c3ccccn3)CC1)c2NCCO
655 | CCc1nnc2cc(N3CCN(C(=O)Nc4cccc(F)c4)CC3)cnn12
969 | Nc1nc(-c2ccc(F)cc2)nn1C(=O)c1ccc(F)cc1
769 | COc1ccc(CNC(=O)N(Cc2ccsc2)C2CC2)cc1OC
867 | CCCN1C(=O)c2c(C(=O)NCCCc3ccccc3)ncn2CC1(C)C(=O)NC1CCCC1 (stereo not given)
637 | O=c1[nH]cc(S(=O)(=O)NC2CC3CCC2C3)c(=O)[nH]1 (stereo not given)
824 | Cc1ccc(-n2nc(N3CCCN(C(=O)c4ccc(Br)o4)CC3)ccc2=O)cc1C
966 | COc1ccc(NC(=O)c2nc(N3CCC(C)CC3)c3cnn(C)c3n2)cc1
754 | Cc1ccc(NC(=O)C2CCN(S(=O)(=O)c3cc(C(=O)N4CCCCCC4)cs3)CC2)nc1
647 | COc1ccccc1C(CNC(=O)c1cc(=O)c2cc(Cl)ccc2o1)N(C)C (stereo not given)
632 | CCCc1nnc(NC(=O)CSc2ncc(-c3ccccc3)[nH]2)s1
862 | COC(=O)c1c(-c2ccccc2)csc1NC(=O)C1CCN(C(C)=O)CC1
1030 | CC1CCN(S(=O)(=O)c2nn(C)cc2C(=O)NCC(C)c2ccccc2)CC1 (stereo not given)
675 | Nc1nc(SCCc2ccccc2)c2[nH]cnc2n1
1030 | COc1ccc(-c2csc3ncnc(SCc4c(C)noc4C)c23)cc1
822 | CC(C)C(=O)Nc1nc(-c2ccc3c(c2)N(C)C(=O)C(C)O3)cs1 (stereo not given)
618 | O=C(NCc1ccccc1)N1CCCC(Cn2cnc3cccnc32)C1 (stereo not given)

RP-LC retention time [s] | Structure (SMILES)
833 | Cc1cc(=O)oc2c3c(cc(OCC(=O)N[C@@H](C(=O)O)C(C)C)c12)OC(C)(C)CC3
623 | CCc1ccc(NC(=O)NCCn2c(-c3ccncc3)nc3cccnc32)cc1
1150 | COc1ccccc1-c1nc2sc3c(c2c(=O)[nH]1)CCCC3
788 | Cc1ccc(C)c(C(=O)Nc2cnn(-c3ncc(N(C)C)cn3)c2)c1
966 | Fc1ccc(OCc2nn3c(CSc4ccccc4)nnc3s2)cc1
889 | Cc1nc(C(=O)Nc2ccc(F)cc2C)c(C)o1
840 | CC1CCC(NC(=O)C2CCCN2S(=O)(=O)c2cc3c(cc2Cl)NC(=O)CO3)CC1 (stereo not given)
850 | COc1ccc(NC(=O)c2cc3c(=O)oc4ccccc4c3n2C)cc1OC
981 | Cc1ccc(NC(=O)N2CCc3cn(C)c4cccc(c34)C2)cc1C
722 | CCNS(=O)(=O)c1ccc(NC(=O)C2CCN(C(=O)C(C)(C)C)CC2)cc1
842 | Cc1ccc(C(=O)NCc2noc(C3CCCC3)n2)cc1
790 | CCc1nnc(-c2ccc3ccn(CC(=O)NCc4cccs4)c3c2)o1
645 | COc1ccccc1-n1c(SCC(=O)Nc2nnc(C)s2)nc2c(c1=O)SCC2
585 | O=C(Nc1ccc(N2CCOCC2)nc1)NC1CCCC1
793 | COc1ccc(CNC(=O)CN2CCN(Cc3ccc(F)cc3)C2=O)c(OC)c1
977 | COc1ccc(OC)c(-c2ccc(=O)n(CCc3nc(-c4ccc(F)cc4)no3)n2)c1
836 | O=C(C1CCN(S(=O)(=O)c2ccc(-c3noc(C4CCCCC4)n3)cc2)CC1)N1CCCC1
786 | CC1=C(c2ccc(C)cc2)S(=O)(=O)N=C1N1CCCN(C(=O)c2ccoc2)CC1
902 | COCCOC(=O)c1cn(-c2cccc(OC)c2)c(=O)c2ccccc12
642 | O=S(=O)(c1ccc(-c2nnc(C3CC3)o2)o1)N1CCN(C2CCCCC2)CC1
607 | Cc1cc(C)n(-c2ccnc(N3CCC(C(=O)NCCN4CCOCC4)CC3)n2)n1

Structure (SMILES) | RP-LC retention time [s]
Cn1cc(C(=O)Nc2ccc3c(c2)OCCO3)c2cccnc21 | 727
O=C(C1CC(=O)N(c2ccc3c(c2)CCN3C(=O)C2CC2)C1)N1CCC2(CC1)OCCO2 (stereo not given) | 652
COc1ccc(-c2nnc(CC(=O)N3CCC4(CC3)OCCO4)o2)cc1 | 681
CN1Cc2ccccc2-n2ccnc2C12CCN(C(=O)Cc1cccc(F)c1)CC2 | 666
COc1ccc(NC(=O)N2[C@H]3CC[C@@H]2c2cnc(-c4ccc(F)cc4)nc2C3)c(OC)c1 | 961
CCCCN1CCN(C(=O)COc2ccc(NC(=O)C3CC3)cn2)CC1 | 570
